This note sets out measurements from patent publication US20260152494A1, “CDK2 INHIBITORS AND METHODS OF USING THE SAME” (Cedilla Therapeutics, Inc., priority 2022, published 2026).

For assay [1], the target named is T1, CDK2/Cyclin E1 (Homo sapiens, UniProt P24941).
T1 construct: purchased Eurofins 14-475
In words: CDK2/Cyclin E1 Caliper LabChip EZ Reader mobility shift assay. It is filed as biochemical. Particulars: 2.5 nM CDK2/Cyclin E1, 100 μM ATP, 1.5 μM fluorescent peptide, 30 min preincubation; read-out: Caliper Assay (CDK2/CCNE1): IC50. The procedure: Example A1: CDK2/Cyclin E1 Caliper Assay
Inhibition of CDK2/Cyclin E1 activity in the presence of compounds of the present disclosure was evaluated using a Caliper LabChip® EZ Reader mobility shift assay. In the assay, CDK2/Cyclin E1 (Eurofins, 14-475) catalyzed the phosphorylation of a fluorescently tagged peptide 5-FAM-QSPKKG-CONH2 (PerkinElmer, FL Peptide 18) which induced a difference in capillary electrophoresis mobility. The peptide substrate and product were measured, and the conversion ratio was used to determine the inhibition (as % activity and IC50 values) of CDK2/Cyclin E1. Reactions contained 50 mM HEPES pH 7.5, 10 mM MgCl2, 1 mM EDTA, 2 mM DTT, 0.01% Brij35, 0.5 mg/mL BSA, 0.1% DMSO, 2.5 nM CDK2/Cyclin E1, 100 μM ATP, and 1.5 μM fluorescent peptide substrate.
Dose titrations of inhibitors in 100% DMSO were combined with 3.25 nM CDK2/Cyclin E1 and 130 μM of ATP in reaction buffer. The mixtures were incubated for 30 minutes before the addition of fluorescent peptide substrate to initiate the kinase reaction. The final conditions were 2.5 nM CDK2/Cyclin E1, 100 μM ATP, and 1.5 μM fluorescent peptide. The reactions were stopped after 100 minutes with the addition of EDTA (400 mM final EDTA concentration). The stopped reactions were analyzed on a Caliper LabChip® EZ Reader II. The conversion ratios were normalized to yield % activity, plotted against compound concentration, and fit to a four-parameter equation to determine the IC50 for each compound.

For assay [2], the system named is Kuramochi cells labeled with mApple-H2B. In words: IncuCyte cell proliferation assay. It counts as cell-based. Conditions: Kuramochi RB-WT cells, 72 hours, cell count normalized to DMSO. As to the method: Example A3: IncuCyte® Cell Proliferation Assay
IncuCyte® assay was used to measure the effect of disclosed compounds on cell proliferation. Fluorescent microscopy images of cells were taken immediately after compound treatment and 72 hours later. Image analysis software was used to obtain cell counts as a function of compound concentration. Kuramochi cells labeled with mApple-H2B were seeded on 384-well assay-ready plates. Plates were placed in an IncuCyte® (Sartorius) and scanned at 0 and 72 hours. IncuCyte® software was used to count the number of fluorescent nuclei in each well. The fold change in cell count from 0 to 72 hours in wells treated with increasing compounds concentrations (10 pts, 1/2 log dilution, 20 μM top concentration) was normalized to DMSO control wells. The normalized cell counts were fit with dose response curves and a GI50 was calculated.

SMILES strings stand for the structures.

As for `CN(C(=O)C1CC2(C1)CN(C(=O)c1cncs1)CC2c1nnc(C(F)(F)c2ccc(Cl)c(Cl)c2)o1)C1CC1` (racemic) [Compound I-16, rac-(R)—N-cyclopropyl-8-(5-((3,4-dichlorophenyl)difluoromethyl)-1,3,4-oxadiazol-2-yl)-N-methyl-6-(thiazole-5-carbonyl)-6-azaspiro[3.4]octane-2-carboxamide], the IC50 is > 10 µM in assay [1] and > 20 µM in assay [2].

In the case of `C[C@@H](OCC1CCCCC1)C(NC(=O)[C@@H]1CCOC12CN(C(=O)[C@H]1CC1(C)C)C2)C(=O)N1CCCCC1` (single isomer, unassigned) [I-29 1st], the IC50 in assay [1] is > 10 µM; in assay [2], > 20 µM.

Turning to `C[C@@H](OCC1CCCCC1)[C@H](NC(=O)[C@H]1CCOC12CN(C(=O)[C@H]1CC1(C)C)C2)C(=O)N1CCCCC1` (single isomer, unassigned) [I-29 2nd], the IC50 in assay [1] is > 10 µM; in assay [2], > 20 µM.

In the case of `C[C@@H](OCC1CCCCC1)[C@H](NC(=O)[C@@H]1CCOC12CN(C(=O)[C@H]1CC1(C)C)C2)C(=O)N1CCC[C@H](N)C1` (single isomer, unassigned) [I-31 1st], the IC50 in assay [1] is > 10 µM; in assay [2], > 20 µM.

Take `C[C@@H](OCC1CCCCC1)[C@H](NC(=O)[C@H]1CCOC12CN(C(=O)[C@H]1CC1(C)C)C2)C(=O)N1CCC[C@H](N)C1` (single isomer, unassigned) [I-31 2nd]: the IC50 in assay [1] was > 10 µM; in assay [2], > 20 µM.

On to `C[C@@H](OCC1CCCCC1)[C@H](NC(=O)[C@@H]1CCOC12CN(C(=O)[C@H]1CC1(C)C)C2)C(=O)N1CCC[C@@H](N)C1` (single isomer, unassigned) [I-34 1st], for which the IC50 in assay [1] is > 10 µM; in assay [2] it was > 20 µM.

Consider `C[C@@H](OCC1CCCCC1)[C@H](NC(=O)[C@H]1CCOC12CN(C(=O)[C@H]1CC1(C)C)C2)C(=O)N1CCC[C@@H](N)C1` (single isomer, unassigned) [I-34 2nd], for which the IC50 in assay [1] was > 10 µM; in assay [2], > 20 µM.

Take `CNC(=O)[C@@H](NC(=O)[C@H]1CCOC12CN(C(=O)[C@H]1CC1(C)C)C2)[C@@H](C)OCC1CCCCC1` (single isomer, unassigned) [I-35 1st]: the IC50 was > 10 µM in assay [1] and > 20 µM in assay [2].

Consider `CNC(=O)[C@@H](NC(=O)[C@@H]1CCOC12CN(C(=O)[C@H]1CC1(C)C)C2)[C@@H](C)OCC1CCCCC1` (single isomer, unassigned) [I-35 2nd], for which the results for the IC50 in assay [1] and in assay [2] were > 10 µM and > 20 µM, respectively.

As for `O=C(c1cc(F)n[nH]1)N1CC(c2nnc(C(F)(F)c3ccc(Cl)c(Cl)c3)o2)C2(CCOCC2)C1` (stereo not drawn) [Compound I-1], the results for the IC50 in assay [1] and in assay [2] were > 10 µM and > 20 µM, respectively.

Consider `O=C(c1cncs1)N1CC(c2nnc(C(F)(F)c3ccc(Cl)c(Cl)c3)o2)C2(CCN(C(=O)[C@H]3CC3(F)F)CC2)C1` (stereo partly drawn) [Compound I-2, (4-(5-((3,4-dichlorophenyl)difluoromethyl)-1,3,4-oxadiazol-2-yl)-2-(thiazole-5-carbonyl)-2,8-diazaspiro[4.5]decan-8-yl)((R)-2,2-difluorocyclopropyl)methanone], for which the IC50 is > 10 µM in assay [1] and > 20 µM in assay [2].

For the compound `O=C(c1cncs1)N1CC(c2nnc(C(F)(F)c3ccc(Cl)c(Cl)c3)o2)C2(CC(C(=O)N3CCC3)C2)C1` (stereo not drawn) [Compound I-3], the IC50 in assay [2] was > 20 µM.

`CC(=O)N1CC(c2nnc(C(F)(F)c3ccc(Cl)c(Cl)c3)o2)C2(CCOCC2)C1` (stereo not drawn) [Compound I-7]: the IC50 in assay [1] is > 10 µM; in assay [2], > 20 µM.

In the case of `O=C(c1cncs1)N1CC(c2nnc(C(F)(F)c3ccc(Cl)c(Cl)c3)o2)C2(CCS(=O)(=O)CC2)C1` (stereo not drawn) [Compound I-8, (4-(5-((3,4-dichlorophenyl)difluoromethyl)-1,3,4-oxadiazol-2-yl)-8,8-dioxido-8-thia-2-azaspiro[4.5]decan-2-yl)(thiazol-5-yl)methanone], the results for the IC50 in assay [1] and in assay [2] were > 10 µM and > 20 µM, respectively.

Consider `O=C(c1cncs1)N1CC(c2nnc(C(F)(F)c3ccc(Cl)c(Cl)c3)o2)C2(CCNCC2)C1` (stereo not drawn) [Compound I-9], for which the figures for the IC50 in assay [1] and in assay [2] were > 10 µM and > 20 µM, respectively.

`O=C(c1cnccn1)N1CC(c2nnc(C(F)(F)c3ccc(Cl)c(Cl)c3)o2)C2(CCOCC2)C1` (stereo not drawn) [Compound I-10]: the IC50 in assay [1] was > 10 µM; in assay [2], > 20 µM.

Turning to `O=C(c1cncs1)N1CC(c2nnc(C(F)(F)c3ccc(Cl)c(Cl)c3)o2)C2(CCC2)C1` (stereo not drawn) [Compound I-11, (8-(5-((3,4-dichlorophenyl)difluoromethyl)-1,3,4-oxadiazol-2-yl)-6-azaspiro[3.4]octan-6-yl)(thiazol-5-yl)methanone], the IC50 was > 10 µM in assay [1] and > 20 µM in assay [2].

Turning to `O=C(c1cncs1)N1CC(c2nnc(C(F)(F)c3ccc(Cl)c(Cl)c3)o2)C2(CCOCC2)C1` (stereo not drawn) [Compound I-12, (4-(5-((3,4-dichlorophenyl)difluoromethyl)-1,3,4-oxadiazol-2-yl)-8-oxa-2-azaspiro[4.5]decan-2-yl)(thiazol-5-yl)methanone], the IC50 was > 10 µM in assay [1] and > 20 µM in assay [2].

As for `CC(C)(C)OC(=O)N1CCC2(CC1)CN(C(=O)c1cncs1)CC2c1nnc(C(F)(F)c2ccc(Cl)c(Cl)c2)o1` (stereo not drawn) [Compound I-14, tert-butyl 4-(5-((3,4-dichlorophenyl)difluoromethyl)-1,3,4-oxadiazol-2-yl)-2-(thiazole-5-carbonyl)-2,8-diazaspiro[4.5]decane-8-carboxylate], the results for the IC50 in assay [1] and in assay [2] were > 10 µM and 5 to 20 µM, respectively.

For the compound `CC1(C)C[C@@H]1C(=O)N1CCC2(CC1)CN(C(=O)c1cncs1)CC2c1nnc(C(F)(F)c2ccc(Cl)c(Cl)c2)o1` (stereo partly drawn) [Compound I-15, (4-(5-((3,4-dichlorophenyl)difluoromethyl)-1,3,4-oxadiazol-2-yl)-2-(thiazole-5-carbonyl)-2,8-diazaspiro[4.5]decan-8-yl)((S)-2,2-dimethylcyclopropyl)methanone], the IC50 in assay [1] is > 10 µM; in assay [2], > 20 µM.

On to `COC[C@H]1CCCN(C(=O)[C@@H](NC(=O)[C@@H]2CN(C(=O)c3cncs3)CC23CN([S+]([O-])C(C)(C)C)C3)[C@@H](C)OCC2CCCCC2)C1` (stereo partly drawn) [Compound I-17, (8S)-2-(tert-butylsulfinyl)-N-((2S,3R)-3-(cyclohexylmethoxy)-1-((S)-3-(methoxymethyl)piperidin-1-yl)-1-oxobutan-2-yl)-6-(thiazole-5-carbonyl)-2,6-diazaspiro[3.4]octane-8-carboxamide], for which the IC50 was 1 to 10 µM in assay [1] and > 20 µM in assay [2].

Turning to `COC[C@H]1CCCN(C(=O)[C@@H](NC(=O)[C@@H]2CN(C(=O)c3cncs3)CC23CN(S(=O)(=O)C2CC2(C)C)C3)[C@@H](C)OCC2CCCCC2)C1` (stereo partly drawn) [Compound I-18], the IC50 in assay [1] was in the range of 1 to 10 µM.

Regarding `Cc1ccc(CNC(=O)[C@@H]2CN(C(=O)c3cnn(Cc4ccccc4)c3)CC23CN(C(=O)[C@H]2CC2(C)C)C3)nn1` [Compound I-20], the IC50 was > 10 µM in assay [1] and > 20 µM in assay [2].

Take `COC[C@H]1CCCN(C(=O)[C@@H](NC(=O)[C@H]2CN(C(=O)c3cncs3)CC23CN(C(=O)[C@H]2CC2(C)C)C3)[C@@H](C)OCC2CCCCC2)C1` [Compound I-21]: the IC50 in assay [1] lay in the range of 0.1 to 1 µM; in assay [2] it was 5 to 20 µM.

Turning to `CC(=O)N1C[C@@H](C(N)=O)C2(C1)CN(C(C)=O)C2` [Compound I-22, (S)-2,6-diacetyl-2,6-diazaspiro[3.4]octane-8-carboxamide], the figures for the IC50 in assay [1] and in assay [2] were > 10 µM and > 20 µM, respectively.

On to `C[C@@H](OCC1CCCCC1)[C@H](NC(=O)C1CSCC12CN(C(=O)[C@H]1CC1(C)C)C2)C(=O)N1CCCCC1` (stereo partly drawn) [Compound I-23, N-((2S,3R)-3-(cyclohexylmethoxy)-1-oxo-1-(piperidin-1-yl)butan-2-yl)-2-((S)-2,2-dimethylcyclopropane-1-carbonyl)-6-thia-2-azaspiro[3.4]octane-8-carboxamide], for which the IC50 in assay [1] was > 10 µM; in assay [2], > 20 µM.

Consider `CC1(C)C[C@@H]1C(=O)N1CC2(CN(C(=O)c3cnn(Cc4ccccc4)c3)CC2C#N)C1` (stereo partly drawn) [Compound I-40, 6-(1-benzyl-1H-pyrazole-4-carbonyl)-2-((S)-2,2-dimethylcyclopropane-1-carbonyl)-2,6-diazaspiro[3.4]octane-8-carbonitrile], for which the IC50 in assay [1] is > 10 µM.
